Measurements: the supplement of paper PMC10307832

compound: CC(C)C[C@@H](C(=O)N[C@H](C(=O)OC1CCCC1)c1ccccc1)[C@H](O)C(=O)NO [Tosedostat]; test: relative viability (nuclei count vs DMSO), 5 days (fraction); higher = more cells survive; conditions: 2 µM
How it was run: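 Viability was defined as treated-well nuclei divided by vehicle-well nuclei, with the median taken over replicate plates. Cells from lung cancer lines sat overnight at 37 °C in 1536-well plates, received five √10-spaced library-drug doses by pinning on vehicle-anchored plates, and grew 5 days without medium change before one-step fixation, permeabilisation and Hoechst staining, 4× imaging and MetaXpress nuclear counts. Only plates with control CV under 25% and at least one doubling were kept.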

Cell Line	relative viability
LOU-NH91	0.86

compound: CC1=NN=C(O1)C2=NN=C(C=C2)N3CCC(CC3)OC4=C(C=CC(=C4)F)Cl + CS(=O)(=O)CCNCc1ccc(-c2ccc3ncnc(Nc4ccc(OCc5cccc(F)c5)c(Cl)c4)c3c2)o1 [Lapatinib] (partner 2 µM); test: relative viability (nuclei count vs DMSO), 5 days (fraction); higher = more cells survive; conditions: first compound 0.253 µM
How it was run: (§1)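 Dosing by pin tool came one day after lung cancer cell lines were seeded in 1536-well plates, using either one drug or a fixed anchor-drug dose plus five library-drug doses (not always all listed) in √10 steps. After 5 days, nuclei were counted on 4× images. Relative viability is treated-well nuclei count divided by vehicle-well nuclei count, and values are medians of duplicate plates.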

Cell Line	relative viability
NCI-H1299	0.737
NCI-H322M	0.467
NCI-H1437	0.434
PC-14	0.294
CAL-12T	0.59
NCI-H1734	0.954
EPLC-272H	0.809
NCI-H3122	0.519
NCI-H2009	0.453
NCI-H1563	0.804
NCI-H520	0.888
NCI-H1651	0.695
NCI-H1993	0.778
NCI-H2228	1.03
HCC-15	0.418
NCI-H1793	0.75
EKVX	0.175
LC-2-ad	0.291
NCI-H1666	0.303
NCI-H1944	0.452
NCI-H2085	0.644
ABC-1	1.13
NCI-H358	0.545
PC-3 [JPC-3]	0.404

same assay, conditions: first compound 0.8 µM

Cell Line	relative viability
NCI-H1299	0.718
NCI-H322M	0.581
NCI-H1437	0.486
PC-14	0.31
CAL-12T	0.565
NCI-H1734	0.683
NCI-H3122	0.675
NCI-H2009	0.421
NCI-H1563	0.992
NCI-H520	0.84
NCI-H1651	0.784
NCI-H1993	0.801
NCI-H2228	1.01
HCC-15	0.408
NCI-H1793	0.688
EKVX	0.178
LC-2-ad	0.271
NCI-H1666	0.554
NCI-H1944	0.526
NCI-H2085	0.627
NCI-H1650	0.71
ABC-1	1.07
NCI-H358	0.447
PC-3 [JPC-3]	0.453
LOU-NH91	0.7

same assay, conditions: first compound 2.53 µM

Cell Line	relative viability
NCI-H1299	0.752
NCI-H322M	0.592
NCI-H1437	0.545
PC-14	0.302
CAL-12T	0.579
NCI-H1734	0.908
EPLC-272H	1.01
NCI-H3122	0.52
NCI-H2009	0.427
NCI-H1563	0.88
NCI-H520	0.82
NCI-H1651	0.691
NCI-H1993	0.737
NCI-H2228	1.13
HCC-15	0.415
NCI-H1793	0.822
EKVX	0.187
LC-2-ad	0.335
NCI-H1666	0.608
NCI-H1944	0.553
NCI-H2085	0.752
NCI-H1650	0.691
ABC-1	0.92
NCI-H358	0.55
PC-3 [JPC-3]	0.445
LOU-NH91	0.717

same assay, conditions: first compound 8 µM

Cell Line	relative viability
NCI-H1299	0.687
NCI-H322M	0.551
NCI-H1437	0.453
PC-14	0.313
CAL-12T	0.425
NCI-H1734	0.882
EPLC-272H	0.814
NCI-H3122	0.449
NCI-H2009	0.464
NCI-H1563	0.82
NCI-H520	0.764
NCI-H1651	0.708
NCI-H1993	0.695
NCI-H2228	0.848
HCC-15	0.414
NCI-H1793	0.581
EKVX	0.193
LC-2-ad	0.262
NCI-H1666	0.428
NCI-H1944	0.426
NCI-H2085	0.612
NCI-H1650	0.566
ABC-1	0.887
NCI-H358	0.451
PC-3 [JPC-3]	0.432
LOU-NH91	0.687

compound: CC(C)C[C@@H](C(=O)N[C@H](C(=O)OC1CCCC1)c1ccccc1)[C@H](O)C(=O)NO [Tosedostat] + CS(=O)(=O)N1CCN(Cc2cc3nc(-c4cccc5[nH]ncc45)nc(N4CCOCC4)c3s2)CC1 [Pictilisib] (partner 1 µM); test: as above; conditions: first compound 0.02 µM
How it was run: as §1

Cell Line	relative viability
NCI-H1299	0.813
NCI-H322M	0.532
NCI-H1437	0.407
PC-14	0.789
CAL-12T	0.471
NCI-H1734	0.471
EPLC-272H	0.416
NCI-H3122	0.663
NCI-H2009	1.14
NCI-H1563	0.636
NCI-H520	0.261
NCI-H1651	0.729
NCI-H1993	0.818
NCI-H2228	0.438
HCC-15	0.777
NCI-H1793	0.484
EKVX	0.45
LC-2-ad	0.269
NCI-H1666	0.603
NCI-H1944	0.368
NCI-H2085	0.445
NCI-H1650	0.696
ABC-1	1
NCI-H358	0.336
PC-3 [JPC-3]	0.756
LOU-NH91	0.594

same assay, conditions: first compound 0.06325 µM

Cell Line	relative viability
NCI-H1299	0.77
NCI-H322M	0.408
NCI-H1437	0.448
PC-14	0.647
CAL-12T	0.417
NCI-H1734	0.468
EPLC-272H	0.337
NCI-H3122	0.659
NCI-H2009	0.841
NCI-H1563	0.657
NCI-H520	0.277
NCI-H1651	0.64
NCI-H1993	0.863
NCI-H2228	0.492
HCC-15	0.731
NCI-H1793	0.31
EKVX	0.423
LC-2-ad	0.429
NCI-H1666	0.404
NCI-H1944	0.37
NCI-H2085	0.518
NCI-H1650	0.599
ABC-1	0.622
NCI-H358	0.366
PC-3 [JPC-3]	0.771
LOU-NH91	0.53

same assay, conditions: first compound 0.2 µM

Cell Line	relative viability
NCI-H1299	0.646
NCI-H322M	0.45
NCI-H1437	0.277
PC-14	0.555
CAL-12T	0.422
NCI-H1734	0.444
EPLC-272H	0.284
NCI-H3122	0.615
NCI-H2009	0.682
NCI-H1563	0.708
NCI-H520	0.3
NCI-H1651	0.503
NCI-H1993	1.01
NCI-H2228	0.347
HCC-15	0.638
NCI-H1793	0.507
EKVX	0.444
LC-2-ad	0.661
NCI-H1666	0.5
NCI-H1944	0.363
NCI-H2085	0.512
NCI-H1650	0.652
ABC-1	0.616
NCI-H358	0.287
PC-3 [JPC-3]	0.602
LOU-NH91	0.568

same assay, conditions: first compound 0.6325 µM

Cell Line	relative viability
NCI-H1299	0.485
NCI-H322M	0.486
NCI-H1437	0.232
PC-14	0.385
CAL-12T	0.484
NCI-H1734	0.459
EPLC-272H	0.3
NCI-H3122	0.692
NCI-H2009	0.732
NCI-H1563	0.712
NCI-H520	0.283
NCI-H1651	0.55
NCI-H1993	0.84
NCI-H2228	0.354
HCC-15	0.572
NCI-H1793	0.403
EKVX	0.398
LC-2-ad	0.458
NCI-H1666	0.367
NCI-H1944	0.352
NCI-H2085	0.593
NCI-H1650	0.645
ABC-1	0.722
NCI-H358	0.239
PC-3 [JPC-3]	0.576
LOU-NH91	0.495

same assay, conditions: first compound 2 µM

Cell Line	relative viability
NCI-H1299	0.316
NCI-H322M	0.391
NCI-H1437	0.256
PC-14	0.458
CAL-12T	0.423
NCI-H1734	0.433
EPLC-272H	0.241
NCI-H3122	0.704
NCI-H2009	0.524
NCI-H1563	0.616
NCI-H520	0.396
NCI-H1651	0.451
NCI-H1993	0.688
NCI-H2228	0.217
HCC-15	0.501
NCI-H1793	0.329
EKVX	0.431
LC-2-ad	0.455
NCI-H1666	0.291
NCI-H1944	0.356
NCI-H2085	0.481
NCI-H1650	0.558
ABC-1	0.535
NCI-H358	0.327
PC-3 [JPC-3]	0.501
LOU-NH91	0.501
